Assay results reported in EPA's ToxRefDB 2.

What was measured:
mouse [1] = conditions: Carcinogenicity, b6c3f1, Oral, Feed, dose end: 104 week, group: systemic
rat [2] = conditions: Carcinogenicity, fischer, Oral, Feed, dose end: 104 week, group: systemic
rat [3] = conditions: Carcinogenicity, fischer, Oral, Feed, dose end: 80 week, group: systemic
mouse [4] = conditions: Carcinogenicity; b6c3f1; Oral; Feed; dose end: 80 week; group: systemic; systemic / pathology microscopic / liver / carcinoma + systemic / pathology microscopic / liver / neoplastic nodule + systemic / in life …
[5] = systemic / in life observation / body weight / body weight
[6] = systemic / in life observation / body weight / body weight + systemic / pathology microscopic / liver / hepatocellular carcinoma + systemic…
[7] = systemic / in life observation / body weight / body weight + systemic / pathology microscopic / urinary bladder / hyperplasia
[8] = systemic / in life observation / body weight / body weight + systemic / pathology microscopic / urinary bladder / hyperplasia + systemic / …
[9] = systemic / in life observation / body weight / body weight + systemic / pathology microscopic / thyroid gland / hyperplasia
[10] = systemic / in life observation / body weight / body weight + systemic / pathology microscopic / thyroid gland / hyperplasia + systemic / in …

COc1ccc(C)cc1N [2-Methoxy-5-methylaniline]
LOAEL (mouse [1]; [5]): 330 mg/kg/day
NOAEL (mouse [1]; [5]): < 330 mg/kg/day
LEL (mouse [1]; [6]): 330 mg/kg/day
NEL (mouse [1]; [6]): < 330 mg/kg/day
LOAEL (rat [2]; [7]): 250 mg/kg/day
NOAEL (rat [2]; [7]): < 250 mg/kg/day
LEL (rat [2]; [8]): 250 mg/kg/day
NEL (rat [2]; [8]): < 250 mg/kg/day

COP(=O)(OC)O/C(=C/Cl)c1cc(Cl)c(Cl)cc1Cl [Tetrachlorovinphos]
LOAEL (rat [3]; [9]): 212 mg/kg/day
NOAEL (rat [3]; [9]): < 212 mg/kg/day
LEL (rat [3]; [10]): 212 mg/kg/day
NEL (rat [3]; [10]): < 212 mg/kg/day
LEL (mouse [4]): 1200 mg/kg/day
LOAEL (mouse [4]): > 2400 mg/kg/day
NEL (mouse [4]): < 1200 mg/kg/day
NOAEL (mouse [4]): ≥ 2400 mg/kg/day
